According to patent US9409884B2 (Rigel Pharmaceuticals, Inc., priority 2012, dated 2016):
Each block holds one molecule with its values, some of them ahead of it.

Target: AMPK
Assay: AMPK activation, enzyme-linked immunosorbent assay
Type: biochemical
Summary of the method: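 Read-out: ELISA, used to detect compound-driven activation of AMPK.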

Compound: NC(=O)c1ccc(CN2CCc3[nH]c4ccc(C(=O)NC5CCN(Cc6ccc(C(F)(F)F)cc6)CC5)cc4c3C2)cc1 [Compound 2-47, 2-(4-carbamoylbenzyl)-N-(1-(4-(trifluoromethyl)benzyl)piperidin-4-yl)-2,3,4,5-tetrahydro-1H-pyrido[4,3-b]indole-8-carboxamide]
EC50 (Table 9, compounds of Table 2): 10 to 50 µM

Compound: O=C(NC1CCN(Cc2ccccc2)CC1)c1cccc(OC2CCN(c3ccc(C(F)(F)F)cc3)CC2)c1 [Compound 5-46, N-(1-benzylpiperidin-4-yl)-3-(1-(4-(trifluoromethyl)phenyl)piperidin-4-yloxy)benzamide]
EC50 (Table 12, compounds of Table 5): < 1 µM

Compound: O=C(NC1CCN(Cc2cccnc2)CC1)c1cc2ccc(OC3CCN(c4ccc(OC(F)(F)F)cc4)CC3)cc2o1 [Compound 1-95, N-(1-(pyridin-3-ylmethyl)piperidin-4-yl)-6-(1-(4-(trifluoromethoxy)phenyl)piperidin-4-yloxy)benzofuran-2-carboxamide]
EC50 (Table 8, compounds of Table 1): < 0.1 µM

Compound: O=C(NC1CCN(Cc2ccc(C(F)(F)F)cc2)CC1)c1ccc2[nH]c3c(c2c1)CN(Cc1ccccc1)CC3 [Compound 2-5, 2-benzyl-N-(1-(4-trifluoromethylbenzyl)piperidin-4-yl)-2,3,4,5-tetrahydro-1N-pyrido[4,3-b]indole-8-carboxamide]
EC50 (Table 9, compounds of Table 2): 1 to 5 µM

Compound: O=C(NC1CCN(CCc2ccccc2)CC1)c1ccc(OC2CCN(c3ccc(C(F)(F)F)cc3)CC2)cn1 [Compound 1-36, N-(1-phenethylpiperidin-4-yl)-5-(1-(4-(trifluoromethyl)phenyl)piperidin-4-yloxy) picolinamide]
EC50 (Table 8, compounds of Table 1): 0.5 to 1 µM

Compound: O=C(NC1CCNCC1)c1cc2cc(OC3CCN(c4ccc(C(F)(F)F)cc4)CC3)ccc2s1 [Compound 1-150, N-(piperidin-4-yl)-5-(1-(4-(trifluoromethyl)phenyl)piperidin-4-yloxy)benzo [b]thiophene-2-carboxamide]
EC50 (Table 8, compounds of Table 1): 1 to 5 µM

Results, then the molecule that gave them:

EC50 (Table 13, compounds of Table 6): 0.1 to 1 µM
Compound: N#Cc1ccc(CN2CCC(NC(=O)c3cc4cc(NC(=O)c5ccc(N6CCCC6)cc5)ccc4o3)CC2)cc1 [Compound 6-68, N-(1-(4-cyanobenzyl)piperidin-4-yl)-5-(4-(pyrrolidin-1-yl)benzamido)benzofuran-2-carboxamide]

EC50 (Table 14, compounds of Table 7): < 1 µM
Compound: O=C(NC1CCN(Cc2ccc(OC(F)(F)F)cc2)CC1)c1ccc(C(=O)N2CCC(C(=O)c3ccc(N4CCCC4)cc3)CC2)nc1 [Compound 7-110, 6-(4-(4-(pyrrolidin-1-yl)benzoyl)piperidine-1-carbonyl)-N-(1-(4-(trifluoromethoxy)benzyl)piperidin-4-yl)nicotinamide]

EC50 (Table 14, compounds of Table 7): < 1 µM
Compound: N#Cc1ccc(CN2CCC(NC(=O)c3ccc(C(=O)N4CCC(C(=O)c5ccc(N6CCOCC6)cc5)CC4)nc3)[C@H](F)C2)cc1 (stereo partly drawn) [Compound 7-75, N-((3,4-trans)-1-(4-cyanobenzyl)-3-fluoropiperidin-4-yl)-6-(4-(4-morpholinobenzoyl)piperidine-l-carbonyl)nicotinamide]

EC50 (Table 14, compounds of Table 7): 1 to 10 µM
Compound: Cc1cc(OC2CCN(C(=O)c3ccc(C(=O)Nc4ccc(Oc5ccc(C#N)cc5)nc4)cn3)CC2)ccc1S(C)(=O)=O [Compound 7-15, N-(6-(4-cyanophenoxy)pyridin-3-yl)-6-(4-(3-methyl-4-(methylsulfonyl)phenoxy)piperidine-1-carbonyl) nicotinamide]

EC50 (Table 14, compounds of Table 7): < 1 µM
Compound: COc1ccc(C(=O)C2CCN(C(=O)c3ccc(C(=O)NC4CCN(Cc5ccc(C#N)c(OC)c5)C[C@@H]4C)cn3)CC2)cc1 (stereo partly drawn) [Compound 7-99, N-((3,4-cis)-1-(4-cyano-3-methoxybenzyl)-3-methylpiperidin-4-yl)-6-(4-(4-methoxybenzoyl)piperidine-1-carbonyl)nicotinamide]

EC50 (Table 13, compounds of Table 6): 0.1 to 1 µM
Compound: COc1ccc(CN2CCC(NC(=O)c3cc4cc(C(=O)N5CCN(Cc6ccc(S(C)(=O)=O)cc6)CC5)ccc4o3)CC2)cc1 [Compound 6-94, N-(1-(4-methoxybenzyl)piperidin-4-yl)-5-(4-(4-(methylsulfonyl)benzyl)piperazine-1-carbonyl) benzofuran-2-carboxamide]
